In US10441588B2, “Methods and compositions for treating bacterial infection” (Curators of the University of Missouri, priority 2012, dated 2019) one finds activity data, which are given here for 13 compounds.

Structures can show the parent of a compound that is named as a salt. Where two headings read alike, the source gives them in different places.

The test system of this experiment is S. aureus biofilm. Description: S. aureus biofilm inhibition, optical density, test/control. The format is cell-based, Staphylococcus aureus. The conditions noted are these: Staphylococcus aureus, growth of biofilm test/control by optical density.
Setting [1] is: 50 μM, read-out: S. aureus Biofilm Inhibition 50 μM vs. (−) Control.
Where [2] appears, read: 5 μM, read-out: S. aureus Biofilm Inhibition 5 μM vs. (−) Control.

For the compound `C=CCn1c(SCCOC)nc2c(c1=O)C1(CCNC1)Cc1cc(OC)ccc1-2` (stereo not drawn) [CCG-208865, 3-allyl-8-methoxy-2-((2-methoxyethyl)thio)-3H-spiro[benzo[h]quinazoline-5,3′-pyrrolidine]-4(6H)-one hydrochloride], the activity at 5 µM (read-out: S. aureus Biofilm Inhibition 5 μM vs. (−) Control, 5 μM) turned out to be 80.3%. In addition, the activity at 50 µM (read-out: S. aureus Biofilm Inhibition 50 μM vs. (−) Control, 50 μM) was 65.2%.
As for `C=CCn1c(SCCOC)nc2c(c1=O)C1(CCN(C(=O)OCC)CC1)Cc1ccccc1-2` [CCG-206233, Ethyl 3-allyl-2-((2-methoxyethyl)thio)-4-oxo-4,6-dihydro-3H-spiro[benzo[h]quinazoline-5,4′-piperidine]-1′-carboxylate], the activity at 50 µM under setting [1] amounted to 59.4%.
Regarding `CCSc1nc(OC)c2c(n1)-c1cc(OC)ccc1CC2(C)C` [CCG-211793, 2-(ethylthio)-4,9-dimethoxy-5,5-dimethyl-5,6-dihydrobenzo[h]quinazoline], the activity at 5 µM under setting [2] stood at 122%. The activity at 50 µM under setting [1] amounted to 72.2%.
Turning to `COc1ccc2c(c1)CC1(CCN(C(=O)OC(C)(C)C)CC1)c1c-2nc(SCC#N)n(C)c1=O` [CCG-211811, tert-butyl 2-((cyanomethyl)thio)-8-methoxy-3-methyl-4-oxo-4,6-dihydro-3H-spiro[benzo[h]quinazoline-5,4′-piperidine]-1′-carboxylate], under setting [2], the activity at 5 µM worked out at 67.8%. Further, the activity at 50 µM under setting [1] is 70.2%.
`COc1ccc2c(c1)-c1nc(SCC#N)nc(OCC#N)c1C(C)(C)C2` [CCG-212011, 2-((4-(cyanomethoxy)-9-methoxy-5,5-dimethyl-5,6-dihydrobenzo[h]quinazolin-2-yl)thio)acetonitrile]: under setting [2], the activity at 5 µM came to 48%. Moreover, under setting [1], the activity at 50 µM was found to be 29%.
As for `C=CCOc1nc(SCCOC)nc2c1C1(CCN(C(=O)CCCC)CC1)Cc1cc(OC)ccc1-2` [CCG-208863, 1-(4-(allyloxy)-8-methoxy-2-((2-methoxyethyl)thio)-6H-spiro[benzo[h]quinazoline-5,4′-piperidin]-1′-yl)pentan-1-one], the activity at 5 µM under setting [2] was found to be 72.1%. Also, the activity at 50 µM under setting [1] is 68.6%.
Regarding `COc1ccc2c(c1)-c1nc(SCC#N)n(CC#N)c(=O)c1C(C)(C)C2` [CCG-212012, 2-((3-(cyanomethyl)-9-methoxy-5,5-dimethyl-4-oxo-3,4,5,6-tetrahydrobenzo[h]quinazolin-2-yl)thio)acetonitrile], under setting [2], the activity at 5 µM was found to be 55%. Also, the activity at 50 µM under setting [1] was determined as 27%.
`C=CCn1c(SCCOC)nc2c(c1=O)C1(CCN(C(=O)OC(C)(C)C)C1)Cc1cc(OC)ccc1-2` (stereo not drawn) [CCG-208864, tert-butyl 3-allyl-8-methoxy-2-((2-methoxyethyl)thio)-4-oxo-4,6-dihydro-3H-spiro[benzo[h]quinazoline-5,3′-pyrrolidine]-1′-carboxylate]: the activity at 5 µM under setting [2] came to 49.5%. In addition, the activity at 50 µM under setting [1] was determined as 49.1%.
As for `C=CCn1c(SCCOC)nc2c(c1=O)C1(CCN(C)CC1)Cc1cc(OC)ccc1-2` [CCG-208981, 3-allyl-8-methoxy-2-((2-methoxyethyl)thio)-1′-methyl-3H-spiro[benzo[h]quinazoline-5,4′-piperidin]-4(6H)-one], the activity at 5 µM under setting [2] turned out to be 88.5%. Also, under setting [1], the activity at 50 µM turned out to be 70.6%.
With `C=CCn1c(SCC)nc2c(c1=O)C(C)(C)Cc1cc(OCC(=O)O)ccc1-2` [CCG-205434], the activity at 100 µM stood at 32.5%.
With `C=CCOc1nc(SCC)nc2c1C(C)(C)Cc1ccc(OC)cc1-2` [CCG-206358], the activity at 100 µM amounted to 70%. Further, the activity at 10 µM (10 μM) turned out to be 55.7%.
With `COc1ccc2c(c1)CC1(CCN(C(=O)OC(C)(C)C)CC1)c1c(OC)nc(SCC#N)nc1-2` [CCG-211810, tert-butyl 2-((cyanomethyl)thio)-4,8-dimethoxy-6H-spiro[benzo[h]quinazoline-5,4′-piperidine]-1′-carboxylate], the activity at 5 µM under setting [2] is 68.2%. In addition, the activity at 50 µM under setting [1] was 75%.
As for `C=CCOc1nc(SCC#N)nc2c1C(C)(C)Cc1ccc(OC)cc1-2` [CCG-212010, 2-((4-(allyloxy)-9-methoxy-5,5-dimethyl-5,6-dihydrobenzo[h]quinazolin-2-yl)thio)acetonitrile], the activity at 5 µM under setting [2] was determined as 55%. Further, under setting [1], the activity at 50 µM is 35%.
